According to ChEMBL document CHEMBL1157492, “Discovery of potent and cell-active allosteric dual Akt 1 and 2 inhibitors” (Bioorg Med Chem Lett, 2008):
Active and inactive are the calls of the source. The calls are words filed in the database; no cut-off is given here.

Columns and labels:
[1] = biological target: T1, RAC-beta serine/threonine-protein kinase (Homo sapiens, UniProt P31751); assay: Inhibition of Akt2 phosphorylation in human by C33a cells by IPKA assay; format: cell-based
[2] = biological target: T2, RAC-alpha serine/threonine-protein kinase (Homo sapiens, UniProt P31749); assay: Inhibition of Akt1 phosphorylation in human by C33a cells by IPKA assay; format: cell-based
[3] = biological target: T1, RAC-beta serine/threonine-protein kinase; assay: Inhibition of Akt2 phosphorylation by HTRF assay
[4] = biological target: T2, RAC-alpha serine/threonine-protein kinase; assay: Inhibition of Akt1 phosphorylation by HTRF assay

T1 sequence (P31751 whole entry): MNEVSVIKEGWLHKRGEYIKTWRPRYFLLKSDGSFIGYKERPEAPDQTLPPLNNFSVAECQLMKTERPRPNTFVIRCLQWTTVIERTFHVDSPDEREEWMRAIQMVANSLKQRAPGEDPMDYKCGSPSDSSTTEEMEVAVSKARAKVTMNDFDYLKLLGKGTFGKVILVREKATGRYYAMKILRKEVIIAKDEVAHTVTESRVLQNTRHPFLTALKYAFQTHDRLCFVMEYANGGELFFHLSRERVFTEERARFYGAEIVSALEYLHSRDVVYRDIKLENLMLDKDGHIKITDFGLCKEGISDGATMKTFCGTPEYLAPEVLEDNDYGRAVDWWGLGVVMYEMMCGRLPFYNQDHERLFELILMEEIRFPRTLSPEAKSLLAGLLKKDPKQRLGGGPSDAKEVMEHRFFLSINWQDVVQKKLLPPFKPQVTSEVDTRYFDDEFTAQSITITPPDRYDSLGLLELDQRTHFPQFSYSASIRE
T2 sequence (P31749 whole entry): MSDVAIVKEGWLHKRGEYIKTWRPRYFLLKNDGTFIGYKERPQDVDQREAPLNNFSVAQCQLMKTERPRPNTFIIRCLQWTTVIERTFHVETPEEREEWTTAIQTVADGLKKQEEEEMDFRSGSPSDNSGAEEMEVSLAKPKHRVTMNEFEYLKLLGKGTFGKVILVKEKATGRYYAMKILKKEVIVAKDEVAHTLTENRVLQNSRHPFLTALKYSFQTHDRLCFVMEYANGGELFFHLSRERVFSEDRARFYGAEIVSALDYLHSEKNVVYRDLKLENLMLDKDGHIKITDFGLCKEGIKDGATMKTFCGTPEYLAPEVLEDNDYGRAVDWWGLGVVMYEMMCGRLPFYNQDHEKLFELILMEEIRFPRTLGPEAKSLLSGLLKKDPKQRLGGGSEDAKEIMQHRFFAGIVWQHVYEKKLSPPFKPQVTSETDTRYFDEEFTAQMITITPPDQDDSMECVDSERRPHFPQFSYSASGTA

Row | Compound | IC50 [1] [nM] | IC50 [2] [nM] | IC50 [3] [nM] | IC50 [4] [nM] | Activity [1] | Activity [2]
1 | C[C@@H]1CN(c2ncc3cc(-c4ccccc4)c(-c4ccc(CN5CCC(c6nnc(-c7ccccn7)[nH]6)CC5)cc4)nc3n2)CCN1 | 44 | 36 | 25 | 8 | – | –
2 | CN1CCN(c2nccc3cc(-c4ccccc4)c(-c4ccc(CN5CCC(c6nnc(-c7ccccn7)[nH]6)CC5)cc4)nc23)CC1 | – | – | 3570 | 720 | inactive | inactive
3 | CS(=O)(=O)N1CCN(c2ncc3cc(-c4ccccc4)c(-c4ccc(CN5CCC(c6nnc(-c7ccccn7)[nH]6)CC5)cc4)nc3n2)CC1 | 196 | 20 | 23 | 7 | – | –
4 | O[C@@H]1CN(c2ncc3cc(-c4ccccc4)c(-c4ccc(CN5CCC(c6nnc(-c7ccccn7)[nH]6)CC5)cc4)nc3n2)CCN1 | 421 | 61 | 67 | 25 | – | –
5 | OC1CCN(c2ncc3cc(-c4ccccc4)c(-c4ccc(CN5CCC(c6nnc(-c7ccccn7)[nH]6)CC5)cc4)nc3n2)CC1 | 168 | 17 | 45 | 7 | – | –
6 | c1ccc(-c2cc3cnc(-n4ccnc4)nc3nc2-c2ccc(CN3CCC(c4nnc(-c5ccccn5)[nH]4)CC3)cc2)cc1 | 684 | 35 | 73 | 5 | – | –
7 | CN1CCN(c2cc3cc(-c4ccccc4)c(-c4ccc(CN5CCC(c6nnc(-c7ccccn7)[nH]6)CC5)cc4)nc3cn2)CC1 | 133 | 924 | 59 | 740 | – | –
8 | CC(=O)N1CCN(c2ncc3cc(-c4ccccc4)c(-c4ccc(CN5CCC(c6nnc(-c7ccccn7)[nH]6)CC5)cc4)nc3n2)CC1 | 145 | 15 | 16 | 5 | – | –
9 | CN(C)C(=O)N1CCN(c2ncc3cc(-c4ccccc4)c(-c4ccc(CN5CCC(c6nnc(-c7ccccn7)[nH]6)CC5)cc4)nc3n2)CC1 | 177 | 13 | 40 | 18 | – | –
10 | c1ccc(-c2cc3cnc(N4CCOCC4)nc3nc2-c2ccc(CN3CCC(c4nnc(-c5ccccn5)[nH]4)CC3)cc2)cc1 | 243 | 19 | 43 | 5 | – | –
11 | c1ccc(-c2cc3cnc(N4CCn5cnnc5C4)nc3nc2-c2ccc(CN3CCC(c4nnc(-c5ccccn5)[nH]4)CC3)cc2)cc1 | 735 | 125 | 138 | 19 | – | –
12 | CN1CC(N2CCN(c3ncc4cc(-c5ccccc5)c(-c5ccc(CN6CCC(c7nnc(-c8ccccn8)[nH]7)CC6)cc5)nc4n3)CC2)C1 | 27 | 6 | 9 | 12 | – | –
13 | CN(C)C1CCN(c2ncc3cc(-c4ccccc4)c(-c4ccc(CN5CCC(c6nnc(-c7ccccn7)[nH]6)CC5)cc4)nc3n2)CC1 | 70 | 23 | 22 | 10 | – | –
14 | C[C@H]1CN(c2ncc3cc(-c4ccccc4)c(-c4ccc(CN5CCC(c6nnc(-c7ccccn7)[nH]6)CC5)cc4)nc3n2)CCN1 | 125 | 75 | 47 | 17 | – | –
15 | CN1CCN(c2ncc3cc(-c4ccccc4)c(-c4ccc(CN5CCC(c6nnc(-c7ccccn7)[nH]6)CC5)cc4)nc3n2)CC1 | 52 | 36 | 27 | 9 | – | –
16 | CSc1ncc2cc(-c3ccccc3)c(-c3ccc(CNCCC(=O)c4ccccc4N)cc3)nc2n1 | 388 | 78 | – | – | – | –
17 | CN(C)CC(=O)N1CCN(c2ncc3cc(-c4ccccc4)c(-c4ccc(CN5CCC(c6nnc(-c7ccccn7)[nH]6)CC5)cc4)nc3n2)CC1 | 19 | 3 | 6 | 6 | – | –
18 | C[C@@H]1CN(c2ncc3cc(-c4ccccc4)c(-c4ccc(CN5CCC(c6nnc(-c7ccccn7)[nH]6)CC5)cc4)nc3n2)C[C@H](C)O1 | 184 | 42 | 102 | 28 | – | –
19 | C[C@@H]1CN[C@@H](C)CN1c1ncc2cc(-c3ccccc3)c(-c3ccc(CN4CCC(c5nnc(-c6ccccn6)[nH]5)CC4)cc3)nc2n1 | 199 | 194 | 29 | 43 | – | –
20 | CN1CCN(c2nccc3nc(-c4ccc(CN5CCC(c6nnc(-c7ccccn7)[nH]6)CC5)cc4)c(-c4ccccc4)cc23)CC1 | – | – | 539 | 285 | inactive | inactive
21 | O=S1(=O)CCN(c2ncc3cc(-c4ccccc4)c(-c4ccc(CN5CCC(c6nnc(-c7ccccn7)[nH]6)CC5)cc4)nc3n2)CC1 | – | – | 297 | 38 | – | inactive
22 | C[C@@H]1CN(c2ncc3cc(-c4ccccc4)c(-c4ccc(CN5CCC(c6nnc(-c7ccccn7)[nH]6)CC5)cc4)nc3n2)C[C@H](C)N1 | 101 | 46 | 77 | 45 | – | –
23 | OCCN1CCN(c2ncc3cc(-c4ccccc4)c(-c4ccc(CN5CCC(c6nnc(-c7ccccn7)[nH]6)CC5)cc4)nc3n2)CC1 | 41 | 17 | 31 | 9 | – | –
24 | CN(C)CCNc1ncc2cc(-c3ccccc3)c(-c3ccc(CN4CCC(c5nnc(-c6ccccn6)[nH]5)CC4)cc3)nc2n1 | 223 | 208 | 154 | 79 | – | –
25 | FC1(F)CCN(c2ncc3cc(-c4ccccc4)c(-c4ccc(CN5CCC(c6nnc(-c7ccccn7)[nH]6)CC5)cc4)nc3n2)C1 | 462 | 75 | 252 | 20 | – | –
26 | c1ccc(-c2cc3cnc(N4CCCCC4)nc3nc2-c2ccc(CN3CCC(c4nnc(-c5ccccn5)[nH]4)CC3)cc2)cc1 | 229 | 36 | 93 | 18 | – | –
